From US6506781B1, “Oxazole PPAR antagonist” (SmithKline Beecham Corporation, priority 1999, dated 2003)

System: male ZDF/GMI fa/fa rats
Test: Experimental animal protocol: blood glucose, triglycerides and NEFAs in ZDF rats
Format: in vivo
Conditions: 150 mg/kg twice a day oral gavage, after 2 weeks, non-fasting, mean ± SEM
Experimental: Experimental Animal Protocol
Age and weight matched male ZDF/GMI fa/fa rats (Genetic Models) were housed at 72 degF. and 50% relative humidity with a 12 hr light and dark cycle. Starting at 8 weeks of age the animals were dosed twice a day by oral gavage with 150 mg/kg of example 2. After 2 weeks the animals were anesthetized with isofluorane, blood drawn by cardiac puncture, and non-fasting measurements of glucose, triglycerides, and non-esterified free fatty acids (NEFAS) were obtained. The data were calculated as the mean and standard error (SEM) from experiments performed on ten animals per treatment group. Two-tailed tests were performed to calculate P values using Excel on a personal computer. This research complied with the principles of laboratory animal care (NIH publication No. […], revised 1985) and company policy on the care and use of animals and related codes of practice.

Structure (SMILES): CCCc1nnc(C[C@H](Nc2ccccc2C(=O)c2ccccc2)c2ccc(OCCc3nc(-c4ccccc4)oc3C)cc2)o1 [Example 1, (S)-{{2-[1-(2-Benzoylphenyl)amino]-2-{4-[2-(5-methyl-2-phenyloxazol-4-yl)ethoxy]phenyl}ethyl}}-5-propyl-1,3,4-oxadiazole]
- Free Fatty Acids (control 1.48 ± 0.09): 1.14 ± 0.06 mEq/L
- Glucose (control 313 ± 62): 201 ± 13 mg/dL
- Triglycerides (control 1507 ± 143): 734 ± 102 mg/dL
